Experimental data as given in patent US20040018158A1, “Topical compositions including sunscreen compositions” (Tend Skin International, Inc., priority 1998, published 2004).

What was measured:
[1] = saturation concentration of acetylsalicylic acid in the solvent mixture; type: physicochemical; conditions: solvent mixture: propylene glycol about 10% by volume, glycerine about 2 percent by volume, balance isopropyl alcohol/water solution with isopropyl alcohol about 70% by volume
[2] = solubility of acetylsalicylic acid in water; type: physicochemical
Description: In preparing the composition, it can be helpful to gently warm while stirring the solvent mixture to assist the acetylsalicylic acid in completely dissolving in the solvent mixture. It has been observed that the typical consumer tends to prefer a product that is homogeneous in appearance and without any visible precipitate. […] Thus, aloe vera, for example, while it is soothing to the skin, tends to quickly hydrolyze acetylsalicylic acid. The hydrolysis of the acetylsalicylic acid would substantially and undesirably shorten the shelf life of the product.

- saturation concentration of the acetylsalicylic acid in this solvent mixture [1]: about 18 % by weight per unit volume
- solubility in water or water based substances [2]: virtually insoluble
Structure (SMILES): CC(=O)Oc1ccccc1C(=O)O [acetylsalicylic acid]
